Where two headings read alike, the source gives them in different places. No end group written: not given here.

Among the targets are DR1 (DRB1*0101) (Homo sapiens, UniProt P01903+P01911, A100R/D57E/F55L/F60I/F76Y/I96L/L162R/M171V/P40L/Q125E/R42F/V115G/Y59C); HLA-A3.2 (A*0301) (Homo sapiens, UniProt P04439); HLA-A11 (A*1101) (Homo sapiens, UniProt P04439, A114D/D185E/E176A/F33Y/L180Q/S129P/T187R); A31 (A*3101) (Homo sapiens, UniProt P04439, A270S/D185E/E176V/E277Q/F33T/G231S/G80R/H175R/I121M/I218V/I322F/K168Q/L300P/L318F/M331R/P217A/Q94H/R138Q/T323A/T345S/T97I/V358M); A*3301 (Homo sapiens, UniProt P04439, A270S/D185E/E176V/E277Q/E87N/F33T/G231S/H175R/I121M/I218V/I322F/K168Q/K210R/L300P/L318F/M331R/P217A/Q86R/Q94H/R138Q/T323A/T345S/T97I/V358M/Y195H); A*6801 (Homo sapiens, UniProt P04439, A269V/D185E/E176V/E277Q/E87N/F33Y/G231S/I121M/I166T/I218V/L180W/L300P/L318F/N151K/P208A/P217A/Q86R/R169H/T345S).

Test in all cases: biochemical
Holding throughout (type): binding

As to ETEIVEPLTPSGAMP [Peptide 9014.0144], on DR1 (DRB1*0101), the IC50 is 481 nM.

In the case of RTTVKTITLSAELPK [Peptide 9014.0065], the IC50 at DR1 (DRB1*0101) amounted to 721 nM.

The compound ETELVEPLSPSGAMP [Peptide 9014.0155] yielded an IC50 against DR1 (DRB1*0101) of 117 nM.

For the compound KYFGSLAFLPESFDGDPA [Peptide 9014.0237], the IC50 against DR1 (DRB1*0101) stood at 949 nM.

At DR1 (DRB1*0101), CWMIDSESRPRFREL [Peptide 9014.0225] displayed an IC50 of 459 nM.

In turn, CWMIDSEHRPRFREL [Peptide 9014.0221] returned an IC50 at DR1 (DRB1*0101) of 868 nM.

At DR1 (DRB1*0101), QNFIQNDTGFYTLHV [Peptide 9014.0071] yielded an IC50 of 677 nM.

On to GTDMKLRLIASPETH [Peptide 9014.0099], for which, at DR1 (DRB1*0101), the IC50 was 18 nM.

In the case of KEILDEAYLMAGVGS [Peptide 9014.0170], at DR1 (DRB1*0101), the IC50 worked out at 969 nM.

Turning to `CC[C@H](C)[C@H](NC(=O)[C@@H](NC(=O)[C@H](CCCCN)NC(=O)[C@H](CC(C)C)NC(=O)[C@@H](NC(=O)[C@@H](NC(=O)[C@@H](N)CCCNC(=N)N)[C@@H](C)O)[C@@H](C)O)[C@@H](C)O)C(=O)N[C@H](C(=O)N[C@H](C(=O)N[C@@H](CO)C(=O)N[C@@H](C)C(=O)N[C@@H](CCC(=O)O)C(=O)N[C@@H](CC(C)C)C(=O)N1CCC[C@H]1C(=O)N[C@@H](CCCCN)C(=O)O)C(C)C)[C@@H](C)O` [Peptide 9014.0058], the IC50 against DR1 (DRB1*0101) worked out at 308 nM.

For the compound DMKLRLSASPETHLD [Peptide 9014.0121], the IC50 against DR1 (DRB1*0101) was 823 nM.

In turn, KIFGSLNFLPESFDGDPA [Peptide 9014.0242] registered an IC50 at DR1 (DRB1*0101) of 225 nM.

In the case of CWMIDSELRPRFREL [Peptide 9014.0223], at DR1 (DRB1*0101), the IC50 worked out at 433 nM.

Turning to DMKLRLVASPETHLD [Peptide 9014.0123], the IC50 against DR1 (DRB1*0101) amounted to 28 nM.

Consider GTDMKLRLNASPETH [Peptide 9014.0101], for which the IC50 on DR1 (DRB1*0101) amounted to 225 nM.

On to GTDMKLRLLASPETH [Peptide 9014.0100], for which the IC50 against DR1 (DRB1*0101) stood at 13 nM.

Compound ETEVVEPLTPSGAMP [Peptide 9014.0146] came in with an IC50 on DR1 (DRB1*0101) of 40 nM.

As for “730.12 (Ac-AAAKATAAAAAA; also: non-natural residue (10)) [Peptide 730.12]”, the IC50 in the assay with DR1 (DRB1*0101) (read-out: DRB1*0101) was 5000 nM.

At DR1 (DRB1*0101), KIFGSLAILPESFDGDPA [Peptide 9014.0248] returned an IC50 of 382 nM.

In turn, KWFGSLAFLPESFDGDPA [Peptide 9014.0236] displayed an IC50 at DR1 (DRB1*0101) of 447 nM.

At DR1 (DRB1*0101), ETEFVEPLTPSGAMP [Peptide 9014.0142] registered an IC50 of 25 nM.

ETELVEPLHPSGAMP [Peptide 9014.0151] displayed an IC50 at DR1 (DRB1*0101) of 31 nM.

For KIFGSLTFLPESFDGDPA [Peptide 9014.0244], on DR1 (DRB1*0101), the IC50 worked out at 233 nM.

With DMKLRLLASPETHLD [Peptide 9014.0119], at DR1 (DRB1*0101), the IC50 worked out at 12 nM.

For `CC(C)[C@H](NC(=O)[C@H](CO)NC(=O)[C@@H]1CCCN1C(=O)[C@@H](N)CCCCN)C(=O)N[C@@H](CO)C(=O)N[C@@H](CO)C(=O)N[C@@H](CC(N)=O)C(=O)N[C@@H](CC(N)=O)C(=O)N[C@@H](CO)C(=O)N[C@@H](CCCCN)C(=O)N1CCC[C@H]1C(=O)N[C@H](C(=O)N[C@@H](CCC(=O)O)C(=O)N[C@@H](CC(=O)O)C(=O)N[C@@H](CCCCN)C(=O)O)C(C)C` [Peptide 9014.0041], the IC50 on DR1 (DRB1*0101) came out at 946 nM.

On DR1 (DRB1*0101), GTDMKLRLVASPETH [Peptide 9014.0104] gave an IC50 of 17 nM.

On to KIFGSLAWLPESFDGDPA [Peptide 9014.0252], for which the IC50 against DR1 (DRB1*0101) came to 120 nM.

Turning to `CC(C)[C@H](NC(=O)[C@@H]1CCCN1C(=O)[C@H](CCCCN)NC(=O)[C@H](CO)NC(=O)[C@H](CC(N)=O)NC(=O)[C@H](CC(N)=O)NC(=O)[C@H](CO)NC(=O)[C@H](CO)NC(=O)[C@H](Cc1c[nH]c2ccccc12)NC(=O)[C@H](CO)NC(=O)[C@@H]1CCCN1C(=O)[C@@H](N)CCCCN)C(=O)N[C@@H](CCC(=O)O)C(=O)N[C@@H](CC(=O)O)C(=O)N[C@@H](CCCCN)C(=O)O` [Peptide 9014.0042], the IC50 against DR1 (DRB1*0101) worked out at 29 nM.

On DR1 (DRB1*0101), DMKLRLPAIPETHLD [Peptide 9014.0135] had an IC50 of 764 nM.

Regarding ETELVEPLLPSGAMP [Peptide 9014.0153], at DR1 (DRB1*0101), the IC50 was 335 nM.

KIFGSLAYLPESFDGDPA [Peptide 9014.0253] gave an IC50 against DR1 (DRB1*0101) of 636 nM.

At DR1 (DRB1*0101), ITDIGLARLLDIDET [Peptide 9014.0177] registered an IC50 of 907 nM.

On to “824.22 (AAKTAAAFA; also: non-natural residue (46)) [Peptide 824.22]”, for which the IC50 with DR1 (DRB1*0101) (read-out: DRB1*0101) stood at 5000 nM.

The compound DMKLRLAASPETHLD [Peptide 9014.0115] came in with an IC50 against DR1 (DRB1*0101) of 47 nM.

As to GTDMKLRLHASPETH [Peptide 9014.0098], the IC50 against DR1 (DRB1*0101) was 823 nM.

ETELVEPLFPSGAMP [Peptide 9014.0150]: the IC50 against DR1 (DRB1*0101) came to 304 nM.

With KTTPVVHLK [Peptide 1589.37], the IC50 is 28 nM on HLA-A3.2 (A*0301); 22 nM against HLA-A11 (A*1101); 28 nM on A31 (A*3101); greater than 20 µM at A*3301; 33 nM against A*6801.

Take SIVGWPAVR [Peptide 9017.0058]: the IC50 at HLA-A3.2 (A*0301) was determined as 1090 nM; against HLA-A11 (A*1101) it was 632 nM; on A31 (A*3101), 79 nM; at A*3301, 0.469 µM; against A*6801 it was 21 nM.

As for QQMFLGTVK [Peptide 88.0415], the IC50 against HLA-A3.2 (A*0301) is 2040 nM; against HLA-A11 (A*1101), 22 nM; against A31 (A*3101) it was 7170 nM; on A*3301, greater than 20 µM; against A*6801, 1580 nM.

As for VTVKVGGQLR [Peptide 1516.06], the IC50 against HLA-A3.2 (A*0301) was 8930 nM; against HLA-A11 (A*1101), 199 nM; against A31 (A*3101) it was 503 nM; at A*3301 it was 12.7 µM; against A*6801 it was 96 nM.

With KTASVGTPK [Peptide 1589.27], the IC50 on HLA-A3.2 (A*0301) is 11 nM; against HLA-A11 (A*1101), 13 nM; against A31 (A*3101), 44 nM; on A*3301, greater than 20 µM; on A*6801 it was 8.5 nM.

Regarding LVYRDDFPY [Peptide 1581.04], the IC50 on HLA-A3.2 (A*0301) is 7380 nM; against HLA-A11 (A*1101) it was 58 nM; at A31 (A*3101), greater than 20000 nM; against A*3301 it was greater than 20 µM; at A*6801, 11300 nM.

Regarding GSQPKTACNK [Peptide 9017.0202], the IC50 on HLA-A3.2 (A*0301) was 472 nM; against HLA-A11 (A*1101), 30 nM; against A31 (A*3101) it was 1480 nM; against A*3301 it was greater than 20 µM; at A*6801 it was 15800 nM.

On to AILGHIVIPR [Peptide 9017.0224], for which the IC50 against HLA-A3.2 (A*0301) was found to be 31 nM; on HLA-A11 (A*1101), 48 nM; on A31 (A*3101) it was 2 nM; at A*3301 it was 0.102 µM; on A*6801, 42 nM.

On to ALTALIKPKK [Peptide 9017.0229], for which the IC50 was 529 nM against HLA-A3.2 (A*0301); 430 nM on HLA-A11 (A*1101); 901 nM against A31 (A*3101); greater than 20 µM on A*3301; 2100 nM at A*6801.

As to HLFTYSWYK [Peptide 76.0164], the IC50 came to 4.9 nM at HLA-A3.2 (A*0301); 7.7 nM at HLA-A11 (A*1101); 35 nM against A31 (A*3101); 0.137 µM against A*3301; 19 nM at A*6801.

For VVLLLVRYK [Peptide 1587.05], the IC50 against HLA-A3.2 (A*0301) is 13 nM; on HLA-A11 (A*1101) it was 21 nM; at A31 (A*3101), 1.2 nM; against A*3301, 0.021 µM; at A*6801 it was 540 nM.

Turning to KSFLKGTPK [Peptide 88.0344], the IC50 against HLA-A3.2 (A*0301) worked out at 16 nM; on HLA-A11 (A*1101), 23 nM; against A31 (A*3101), 22 nM; against A*3301, 16.1 µM; against A*6801, 1910 nM.

Source of the values: patent publication US9340577B2, “HLA binding motifs and peptides and their uses” (priority 1992, dated 2016).
